The values below come from the Kinase Knowledgebase extract (Sharma et al. 2016).

pIC50: −log10 of the molar value.

In general, pIC50 refers to the negative decadic logarithm of the IC50, by convention in mol/L. A high value points to a low IC50.

Assay [1] has as its target EGFR (human) (UniProt P00533). The note with it: kb.
The target of assay [2] is EGFR (human) (UniProt P00533).
Sequence of EGFR (human) (P00533 whole entry, looked up): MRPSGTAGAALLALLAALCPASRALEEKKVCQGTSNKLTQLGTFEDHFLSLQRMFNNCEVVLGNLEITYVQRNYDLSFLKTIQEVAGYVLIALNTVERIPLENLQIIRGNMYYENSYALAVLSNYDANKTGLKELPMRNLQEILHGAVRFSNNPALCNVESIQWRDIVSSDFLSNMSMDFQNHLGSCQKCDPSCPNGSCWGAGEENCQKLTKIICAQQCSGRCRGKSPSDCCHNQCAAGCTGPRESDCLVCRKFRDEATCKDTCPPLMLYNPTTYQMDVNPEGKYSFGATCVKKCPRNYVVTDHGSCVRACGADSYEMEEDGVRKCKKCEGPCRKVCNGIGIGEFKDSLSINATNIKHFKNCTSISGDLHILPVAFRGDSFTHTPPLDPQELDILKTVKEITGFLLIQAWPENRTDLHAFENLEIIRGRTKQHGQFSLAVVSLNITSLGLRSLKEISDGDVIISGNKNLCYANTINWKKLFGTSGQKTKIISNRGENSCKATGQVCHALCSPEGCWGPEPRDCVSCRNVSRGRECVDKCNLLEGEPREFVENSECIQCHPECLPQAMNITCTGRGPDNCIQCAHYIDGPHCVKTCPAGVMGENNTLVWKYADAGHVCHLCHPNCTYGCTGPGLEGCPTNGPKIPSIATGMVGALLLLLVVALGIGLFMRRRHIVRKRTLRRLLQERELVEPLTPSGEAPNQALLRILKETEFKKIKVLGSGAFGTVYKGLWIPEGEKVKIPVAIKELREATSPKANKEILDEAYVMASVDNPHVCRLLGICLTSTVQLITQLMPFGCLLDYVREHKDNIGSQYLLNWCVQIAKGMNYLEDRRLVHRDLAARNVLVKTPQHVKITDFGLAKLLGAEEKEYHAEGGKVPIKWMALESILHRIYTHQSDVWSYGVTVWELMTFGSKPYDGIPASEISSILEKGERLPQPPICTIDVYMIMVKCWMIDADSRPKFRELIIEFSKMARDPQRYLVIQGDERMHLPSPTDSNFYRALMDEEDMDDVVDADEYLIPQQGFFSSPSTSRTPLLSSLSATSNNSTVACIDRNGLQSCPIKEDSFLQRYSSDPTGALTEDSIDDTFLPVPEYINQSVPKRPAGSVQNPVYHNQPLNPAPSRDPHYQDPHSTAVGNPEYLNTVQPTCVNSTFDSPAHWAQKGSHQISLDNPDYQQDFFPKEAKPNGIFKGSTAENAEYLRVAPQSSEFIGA

`COc1cc2c(Nc3cccc(Cl)c3F)ncnc2cc1OC1CCN(C(=O)Cc2cc(C)no2)CC1` showed a pIC50 at EGFR (human) [1] of 7.33.

Take `COc1cc2ncnc(Nc3cccc(Cl)c3F)c2cc1O[C@@H]1CCCN(C(=O)Cc2cccs2)C1`: the pIC50 on EGFR (human) [1] is 7.52. This pIC50 and that of the molecule before are within 0.2 log units of each other.

As for `COc1cc2ncnc(Nc3cccc(Cl)c3F)c2cc1O[C@H]1C[C@H](C(=O)N[C@H]2COC[C@@H]2O)N(C)C1`, the negative-log IC50 (pIC50) against EGFR (human) [1] was 9.86; against EGFR (human) [2], 11.00.

The molecule `COc1cc2c(Nc3cccc(Cl)c3F)ncnc2cc1OC1CCN(C(=O)c2cccnc2)CC1` had a negative logarithm of the IC50 (pIC50) at EGFR (human) [1] of 7.06.

Molecule `COc1cc2ncnc(Nc3cccc(Cl)c3F)c2cc1OC1CCN(C(=O)c2ccno2)CC1` gave a pIC50 against EGFR (human) [1] of 7.77.

For `COc1cc2ncnc(Nc3cccc(Cl)c3F)c2cc1O[C@@H]1C[C@@H](C(=O)NCCC#N)N(C)C1`, the pIC50 at EGFR (human) [1] is 10.20; on EGFR (human) [2], 10.92.

At EGFR (human) [1], `COc1cc2ncnc(Nc3cccc(Cl)c3F)c2cc1OC1CCN(C(=O)c2ccccn2)CC1` had a pIC50 of 7.80.

As to `COc1cc2ncnc(Nc3cccc(Cl)c3F)c2cc1O[C@H]1C[C@H](C(=O)NCCNC(C)=O)N(C)C1`, the results for the pIC50 on EGFR (human) [1] and at EGFR (human) [2] were 9.84 and 11.10, respectively.

In turn, `COc1cc2ncnc(Nc3cccc(Cl)c3F)c2cc1OC1CCN(C(=O)Nc2c(C)noc2C)CC1` had a negative-log IC50 (pIC50) against EGFR (human) [1] of 7.77.
